Drawing on ChEMBL document CHEMBL4346717, “1,2,4-Triazole-quinoline/quinolone hybrids as potential anti-bacterial agents” (Eur J Med Chem, 2019), this text covers zone of inhibition and MIC for 20 molecules.

Type in all cases: functional
For assay [1], the system named is Bacillus subtilis. Kind of assay: Antibacterial activity against Bacillus subtilis assessed as zone of inhibition at 10 mg/ml after 3 to 7 days by cup diffusion method. The settings on record: read-out: IZ.
Assay [2] concerns Aggregatibacter actinomycetemcomitans. Nature of the assay: Antibacterial activity against Aggregatibacter actinomycetemcomitans ATCC 29524 after 3 to 7 days by cup diffusion method.
The subject of assay [3] is Pseudomonas aeruginosa. Kind of assay: Antibacterial activity against Pseudomonas aeruginosa after 3 to 7 days by cup diffusion method.
Assay [4] deals with Mycolicibacterium phlei. Kind of assay: Antibacterial activity against Mycobacterium phlei clinical isolate after 3 to 7 days by cup diffusion method.
Assay [5] relates to Staphylococcus aureus. Nature of the assay: Antibacterial activity against Staphylococcus aureus assessed as zone of inhibition at 10 mg/ml after 3 to 7 days by cup diffusion method. As to conditions: read-out: IZ.
The test system of assay [6] is Escherichia coli. Kind of assay: Antibacterial activity against Escherichia coli after 3 to 7 days by cup diffusion method.
Assay [7] deals with Aggregatibacter actinomycetemcomitans. Kind of assay: Antibacterial activity against Aggregatibacter actinomycetemcomitans ATCC 29524 assessed as zone of inhibition at 10 mg/ml after 3 to 7 days by cup diffusion method. The settings on record: read-out: IZ.
Assay [8] has as its system Pseudomonas aeruginosa. Nature of the assay: Antibacterial activity against Pseudomonas aeruginosa assessed as zone of inhibition at 10 mg/ml after 3 to 7 days by cup diffusion method. As to conditions: read-out: IZ.
Assay [9] relates to Staphylococcus aureus. Nature of the assay: Antibacterial activity against Staphylococcus aureus after 3 to 7 days by cup diffusion method.
Assay [10] concerns Bacillus subtilis. Nature of the assay: Antibacterial activity against Bacillus subtilis after 3 to 7 days by cup diffusion method.
The subject of assay [11] is Mycolicibacterium phlei. Nature of the assay: Antibacterial activity against Mycobacterium phlei clinical isolate assessed as zone of inhibition at 10 mg/ml after 3 to 7 days by cup diffusion method. As to conditions: read-out: IZ.
In assay [12] the test system is Escherichia coli. Kind of assay: Antibacterial activity against Escherichia coli assessed as zone of inhibition at 10 mg/ml after 3 to 7 days by cup diffusion method. The settings on record: read-out: IZ.
In assay [13] the test system is Escherichia coli. Nature of the assay: Antibacterial activity against Escherichia coli.
Assay [14] has as its system Staphylococcus aureus. Kind of assay: Antibacterial activity against Staphylococcus aureus.
Where [15] appears, read: Aggregatibacter actinomycetemcomitans, ATCC 29524, read-out: MIC.
[16] abbreviates: Pseudomonas aeruginosa, read-out: MIC.
[17] abbreviates: Mycolicibacterium phlei, read-out: MIC.
Where [18] appears, read: Escherichia coli, read-out: MIC.
Where [19] appears, read: Staphylococcus aureus, read-out: MIC.
Setting [20] is: Bacillus subtilis, read-out: MIC.

In brackets after ≈: the same amount, converted by molar mass. Where only a bound is given, the exact number is not on record here.

Consider `CCn1cc(-c2nc(NC(=O)c3ccc(F)cc3)n[nH]2)c(=O)c2cc(Br)c(C)nc21`, for which the zone of inhibition at 10000 µg/mL (with Bacillus subtilis [1]; with Staphylococcus aureus [5]; in assay [7]; with Pseudomonas aeruginosa [8]; with Mycolicibacterium phlei [11]; with Escherichia coli [12]) was 20 to 40 mm throughout. For the same molecule, the MIC (in assay [2] (setting [15]); in the assay with Pseudomonas aeruginosa [3] (setting [16]); in the assay on Mycolicibacterium phlei [4] (setting [17]); in the assay on Escherichia coli [6] (setting [18]); with Staphylococcus aureus [9] (setting [19]); with Bacillus subtilis [10] (setting [20])) was 3.68 to 6.3 µM (≈ 1.73 to 2.97 µg/mL) each time.
In the case of `CCn1cc(-c2nc(NC(=O)c3ccc(OC)cc3)n[nH]2)c(=O)c2cc(Br)c(C)nc21`, the zone of inhibition at 10000 µg/mL (with Bacillus subtilis [1]; in the assay on Staphylococcus aureus [5]; in [7]; in the assay on Pseudomonas aeruginosa [8]; with Mycolicibacterium phlei [11]; in the assay on Escherichia coli [12]) was 20 to 40 mm in each case. Moreover, the MIC (in assay [2] (setting [15]); in the assay on Pseudomonas aeruginosa [3] (setting [16]); in the assay with Mycolicibacterium phlei [4] (setting [17]); with Escherichia coli [6] (setting [18]); with Staphylococcus aureus [9] (setting [19]); in the assay with Bacillus subtilis [10] (setting [20])) was 3.68 to 6.3 µM (≈ 1.78 to 3.04 µg/mL) each time.
As for `CCn1cc(-c2nc(/N=C/c3ccc(F)cc3)n[nH]2)c(=O)c2ccc(C)nc21`, the zone of inhibition at 10000 µg/mL (with Bacillus subtilis [1]; with Staphylococcus aureus [5]; in assay [7]; in the assay with Pseudomonas aeruginosa [8]; in the assay with Mycolicibacterium phlei [11]; with Escherichia coli [12]) was 20 to 40 mm in each case. The MIC result (in assay [2]; against Pseudomonas aeruginosa [3]; against Mycolicibacterium phlei [4]; with Escherichia coli [6]; with Staphylococcus aureus [9]; against Bacillus subtilis [10]) was “>=0.031 - 32 ug ml-1” in each case.
As to `CC1CNCCN1Cn1nc2c(F)cc3c(=O)c(C(=O)O)cn(C4CC4)c3n2c1=S` (centres undefined), the MIC against Escherichia coli [13] and with Staphylococcus aureus [14] was 0.125 to 0.5 µg/mL (≈ 0.289 to 1.16 µM) in each case.
Consider `CCn1cc(-c2nc(/N=C/c3ccc(F)cc3)n[nH]2)c(=O)c2cc(Br)c(C)nc21`, for which the zone of inhibition at 10000 µg/mL (in the assay with Bacillus subtilis [1]; with Staphylococcus aureus [5]; in assay [7]; in the assay on Pseudomonas aeruginosa [8]; in the assay on Mycolicibacterium phlei [11]; in the assay with Escherichia coli [12]) was 20 to 40 mm in each case. Further, the MIC (in assay [2] (setting [15]); in the assay with Pseudomonas aeruginosa [3] (setting [16]); with Mycolicibacterium phlei [4] (setting [17]); in the assay with Escherichia coli [6] (setting [18]); with Staphylococcus aureus [9] (setting [19]); with Bacillus subtilis [10] (setting [20])) was 3.68 to 6.3 µM (≈ 1.68 to 2.87 µg/mL) each time.
Regarding `O=C(O)c1cn(C2CC2)c2c(cc(F)c3nn(CN4CCOCC4)c(=S)n32)c1=O`, the MIC against Escherichia coli [13] and against Staphylococcus aureus [14] was 0.125 to 8 µg/mL (≈ 0.298 to 19.1 µM) each time.
Take `CCn1cc(-c2nc(/N=C/c3ccccc3O)n[nH]2)c(=O)c2ccc(C)nc21`: the zone of inhibition at 10000 µg/mL (with Bacillus subtilis [1]; in the assay on Staphylococcus aureus [5]; in [7]; with Pseudomonas aeruginosa [8]; in the assay on Mycolicibacterium phlei [11]; in the assay with Escherichia coli [12]) was 20 to 40 mm each time. For the same molecule, the MIC entry (in assay [2]; with Pseudomonas aeruginosa [3]; in the assay on Mycolicibacterium phlei [4]; in the assay with Escherichia coli [6]; against Bacillus subtilis [10]) was “>=0.031 - 32 ug ml-1” throughout.
As to `CCn1cc(-c2nc(/N=C/c3ccc(Cl)cc3Cl)n[nH]2)c(=O)c2cc(Br)c(C)nc21`, the zone of inhibition at 10000 µg/mL (with Bacillus subtilis [1]; with Staphylococcus aureus [5]; in [7]; in the assay with Pseudomonas aeruginosa [8]; in the assay on Mycolicibacterium phlei [11]; in the assay on Escherichia coli [12]) was 20 to 40 mm in each case. Also, the MIC (in assay [2] (setting [15]); in the assay on Pseudomonas aeruginosa [3] (setting [16]); in the assay on Mycolicibacterium phlei [4] (setting [17]); in the assay with Escherichia coli [6] (setting [18]); with Staphylococcus aureus [9] (setting [19]); in the assay on Bacillus subtilis [10] (setting [20])) was 3.68 to 6.3 µM (≈ 1.86 to 3.19 µg/mL) throughout.
In the case of `CCn1cc(-c2nc(NC(=O)c3ccc(Cl)cc3)n[nH]2)c(=O)c2cc(Br)c(C)nc21`, the zone of inhibition at 10000 µg/mL (in the assay with Bacillus subtilis [1]; with Staphylococcus aureus [5]; in [7]; in the assay with Pseudomonas aeruginosa [8]; with Mycolicibacterium phlei [11]; with Escherichia coli [12]) was 20 to 40 mm throughout. For the same molecule, the MIC (in [2] (setting [15]); in the assay with Pseudomonas aeruginosa [3] (setting [16]); in the assay on Mycolicibacterium phlei [4] (setting [17]); in the assay on Escherichia coli [6] (setting [18]); with Staphylococcus aureus [9] (setting [19]); with Bacillus subtilis [10] (setting [20])) was 3.68 to 6.3 µM (≈ 1.79 to 3.07 µg/mL) in each case.
Regarding `O=C(O)c1cn(C2CC2)c2c(cc(F)c3nn(CN4CCCCC4)c(=S)n32)c1=O`, the MIC in the assay with Escherichia coli [13] and against Staphylococcus aureus [14] was 0.125 to 8 µg/mL (≈ 0.299 to 19.2 µM) in each case.
Consider `CCn1cc(-c2nc(/N=C/c3ccc(Br)cc3)n[nH]2)c(=O)c2ccc(C)nc21`, for which the zone of inhibition at 10000 µg/mL (with Bacillus subtilis [1]; with Staphylococcus aureus [5]; in assay [7]; in the assay with Pseudomonas aeruginosa [8]; with Mycolicibacterium phlei [11]; with Escherichia coli [12]) was 20 to 40 mm each time. Also, the MIC result (in assay [2]; in the assay with Pseudomonas aeruginosa [3]; against Mycolicibacterium phlei [4]; in the assay with Escherichia coli [6]; against Staphylococcus aureus [9]; against Bacillus subtilis [10]) was “>=0.031 - 32 ug ml-1” throughout.
Consider `CCn1cc(-c2nc(/N=C/c3ccccc3)n[nH]2)c(=O)c2cc(Br)c(C)nc21`, for which the zone of inhibition at 10000 µg/mL (in the assay with Bacillus subtilis [1]; in the assay with Staphylococcus aureus [5]; in assay [7]; in the assay with Pseudomonas aeruginosa [8]; with Mycolicibacterium phlei [11]; with Escherichia coli [12]) was 20 to 40 mm in each case. Also, the MIC (in assay [2] (setting [15]); in the assay on Pseudomonas aeruginosa [3] (setting [16]); in the assay on Mycolicibacterium phlei [4] (setting [17]); in the assay on Escherichia coli [6] (setting [18]); in the assay on Staphylococcus aureus [9] (setting [19]); with Bacillus subtilis [10] (setting [20])) was 3.68 to 6.3 µM (≈ 1.61 to 2.75 µg/mL) in each case.
Turning to `CN1CCN(Cn2nc3c(F)cc4c(=O)c(C(=O)O)cn(C5CC5)c4n3c2=S)CC1`, the MIC against Escherichia coli [13] and in the assay with Staphylococcus aureus [14] was 0.125 to 8 µg/mL (≈ 0.289 to 18.5 µM) each time.
With `CCn1cc(-c2nc(NC(=O)CCl)n[nH]2)c(=O)c2cc(Br)c(C)nc21`, the zone of inhibition at 10000 µg/mL (in the assay on Bacillus subtilis [1]; in the assay with Staphylococcus aureus [5]; in assay [7]; in the assay with Pseudomonas aeruginosa [8]; in the assay with Mycolicibacterium phlei [11]; in the assay with Escherichia coli [12]) was 20 to 40 mm in each case. Also, the MIC (in assay [2] (setting [15]); in the assay on Pseudomonas aeruginosa [3] (setting [16]); in the assay with Mycolicibacterium phlei [4] (setting [17]); in the assay on Escherichia coli [6] (setting [18]); in the assay with Staphylococcus aureus [9] (setting [19]); in the assay on Bacillus subtilis [10] (setting [20])) was 3.68 to 6.3 µM (≈ 1.57 to 2.68 µg/mL) each time.
Consider `CCn1cc(-c2nc(/N=C/c3ccc(Cl)cc3Cl)n[nH]2)c(=O)c2ccc(C)nc21`, for which the zone of inhibition at 10000 µg/mL (in the assay on Bacillus subtilis [1]; in the assay on Staphylococcus aureus [5]; in assay [7]; in the assay on Pseudomonas aeruginosa [8]; in the assay on Mycolicibacterium phlei [11]; in the assay with Escherichia coli [12]) was 20 to 40 mm throughout. Further, the MIC entry (in assay [2]; with Pseudomonas aeruginosa [3]; in the assay on Mycolicibacterium phlei [4]; in the assay on Escherichia coli [6]; against Staphylococcus aureus [9]; against Bacillus subtilis [10]) was “>=0.031 - 32 ug ml-1” in each case.
For `CCn1cc(-c2nc(/N=C/c3ccc(OC)cc3)n[nH]2)c(=O)c2ccc(C)nc21`, the zone of inhibition at 10000 µg/mL (with Bacillus subtilis [1]; in the assay with Staphylococcus aureus [5]; in assay [7]; in the assay on Pseudomonas aeruginosa [8]; in the assay with Mycolicibacterium phlei [11]; in the assay on Escherichia coli [12]) was 20 to 40 mm in each case. Besides, the MIC result (in assay [2]; with Pseudomonas aeruginosa [3]; against Mycolicibacterium phlei [4]; in the assay on Escherichia coli [6]; in the assay on Staphylococcus aureus [9]; with Bacillus subtilis [10]) was “>=0.031 - 32 ug ml-1” in each case.
For the molecule `O=C(O)c1cn(C2CC2)c2c(cc(F)c3nn(CN4CCCC4)c(=S)n32)c1=O`, the MIC with Escherichia coli [13] and against Staphylococcus aureus [14] was 0.125 to 8 µg/mL (≈ 0.31 to 19.8 µM) each time.
In the case of `CCN1CCN(Cn2nc3c(F)cc4c(=O)c(C(=O)O)cn(C5CC5)c4n3c2=S)CC1`, the MIC against Escherichia coli [13] and against Staphylococcus aureus [14] was 0.125 to 8 µg/mL (≈ 0.28 to 17.9 µM) throughout.
With `CCN(CC)Cn1nc2c(F)cc3c(=O)c(C(=O)O)cn(C4CC4)c3n2c1=S`, the MIC with Escherichia coli [13] and against Staphylococcus aureus [14] was 4 to 32 µg/mL (≈ 9.87 to 78.9 µM) in each case.
Take `CN(C)Cn1nc2c(F)cc3c(=O)c(C(=O)O)cn(C4CC4)c3n2c1=S`: the MIC in the assay with Escherichia coli [13] and in the assay on Staphylococcus aureus [14] was 4 to 32 µg/mL (≈ 10.6 to 84.8 µM) each time.
